Usually EC50 stands for the midpoint of the concentration-response curve.

Non-standard residues stand in square brackets, D forms with d. Residues, ends and D or L forms follow the SMILES beside them. *: point of attachment. PEG8 = NCCOCCOCCOCCOCCOCCOCCOCCOCCC(=O)O; Palmitoyl = CCCCCCCCCCCCCCCC(=O)*; Tic = O=C(O)[C@@H]1Cc2ccccc2CN1

Assay [1] concerns Adult CD1 mice. The experiment in a line: Chronic constriction injury neuropathic pain model, von Frey and acetone tests. It is filed as in vivo, mouse. Particulars: intrathecal 100 pmol, 1 week after nerve injury. The text has this:
Intrathecal injection of 1-stable chem (100 pmol), 1 week after CCI, reduces CCI-induced mechanical hypersensitivity (panels A+C) and cold allodynia (panel E). Intrathecal injection of ResolvinE1 (RvE1)(100 pmol), 1 week after CCI, reduces CCI-induced mechanical hypersensitivity (panels B+D) and cold allodynia (panel F). BL=baseline before surgery.
Adult CD1 mice (male, 25-35 g) were used for behavioral studies. Mice were group-housed and kept under a 12-hour light/dark cycle. […]
Nerve injury-induced mechanical allodynia and hypersensitivity were assessed by von Frey hairs as previously described (see Xu et al., Resolvin E1 inhibits neuropathic pain and spinal cord microglial activation following peripheral nerve injury, 2013, J. Neuroimmune Pharmacol, 8: 37-41). […] The 50% paw withdrawal threshold (PWT) was determined using Dixon's up-down method. For paw withdrawal frequency (PWF), the same von Frey hair (0.16 g) was applied 10 times and the number of positive responses to the stimulations counted. A positive response was scored if the mouse sharply withdrew the paw or flinched upon removal of the stimulus. […] In brief, a drop of acetone was placed against the plantar paw of the mouse and the mouse's response monitored for the next 20 seconds. […]

Assay [2] deals with Male FVB mice. The assay can be described thus: Ovalbumin sensitization and aerosol challenge model of allergic airway inflammation. It is filed as in vivo, mouse. The settings on record: Day 18. The source says:
Representative photographs are taken at 20× magnification. (C) Lung tissue sections at Day 18 were obtained from fixed, paraffin-embedded lung tissue stained with hematoxylin and eosin. Representative photographs are taken at both 20× and 40×. (D) Total BALF cells and leukocyte subsets were quantified on Day 18 and compared between mice receiving DMSO or l-Stable Chem. Data are representative of the mean±S.E.M. from n=3-8 mice per group. Comparison of DMSO control to l-Stable Chem: *p<0.05.
Male FVB mice age 5-7 weeks (Charles River Laboratories) were housed under viral antibody-free conditions. Ovalbumin (OVA) sensitization and drug administration were performed as previously described with slight modifications. Briefly, mice were sensitized with intraperitoneal injection of 10 μg OVA (Grade III: Sigma) on days 0 and 7. On days 14, 15, 16, and 17, mice received a 25 minute aerosol challenge of 6% (wt/vol) OVA each day. On each of these days, 30 min prior to OVA challenge, mice were given 20 μL of lipidated stable chemerin (21 mM stock in DMSO diluted 1:100 in saline for a final concentration of 210 μM) by the intranasal route. Corresponding controls received DMSO diluted 1:100 in saline. On day 18 or 22, bronchoalveolar lavage fluid (BALF) was collected; animals were sacrificed for histological assessment. […] Cells in BALF were resuspended in PBS and counted with a hemocytometer; cytospins were done via cytocentrifugation (265 g; StatSpin). Cells from the cytospin were stained with Wright-Giemsa stain (Sigma) for quantification of leukocyte subsets. At least 200 cells were counted per slide. […] On the 5th day (corresponding to day 18), mice were sacrificed and BALF collected and analyzed as described above.
Given the high potency, stability, and wash resistance of the lipidated stable chemerin analog, the anti-inflammatory activity of this compound in vivo was examined. […] Markers of inflammation were assessed at day 18 (time course: FIG. 6A).

Assay [3] concerns the target T1, human CMKLR1 (Homo sapiens, UniProt Q99788).
T1 sequence (Q99788 1-373): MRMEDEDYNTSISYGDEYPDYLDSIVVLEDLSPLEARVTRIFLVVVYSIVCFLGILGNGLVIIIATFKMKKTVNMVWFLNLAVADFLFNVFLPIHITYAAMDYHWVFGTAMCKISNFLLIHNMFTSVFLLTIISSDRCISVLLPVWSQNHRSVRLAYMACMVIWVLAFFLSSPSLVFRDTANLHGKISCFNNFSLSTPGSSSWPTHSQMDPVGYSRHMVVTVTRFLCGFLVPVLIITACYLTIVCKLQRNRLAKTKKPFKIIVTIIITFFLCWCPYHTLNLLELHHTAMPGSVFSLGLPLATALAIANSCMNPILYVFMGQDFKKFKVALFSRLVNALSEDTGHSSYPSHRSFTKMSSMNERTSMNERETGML
The experiment in a line: SRE-luciferase reporter gene assay in transfected HEK293 cells. The settings on record: pEC50, Human CMKLR1, no wash; mean ± S.E.M.
Method: (§1) Receptor-mediated signaling was assessed as previously described. Briefly, HEK293 cells were plated at a density of 6,000 cells/well into 96-well clear-bottom plates and grown to ˜80% confluence. […] Expression of Gq5i66V directs signaling of the Gαi-coupled chemerin receptor to stimulation of a Gαq-dependent SRE5x-Luc-PEST reporter gene. For experiments investigating the agonist function of soluble and lipidated peptides, tethered ligand cDNA was not included in the transfection mixture. Twenty four hours after transfection, cells were stimulated with or without peptide agonist for 4 hours in serum-free medium. […] Following ligand stimulation, the media was aspirated and luciferase activity measured using SteadyLite reagent and quantified using a TopCount NTX. A β-galactosidase assay was then performed following assessment of luminescence. Cleavage of 2-nitrophenyl β-D-galactopyranoside substrate was quantified after incubation of cell lysates at 37° C. for 30 to 60 minutes by measuring the optical density at 420 nm on a SpectraMax microplate reader. Luciferase reporter gene activities were normalized to corresponding β-galactosidase activity controls.
(§2) HEK293 cells were transiently transfected with cDNAs encoding i) human or mouse CMKLR1, ii) a SRE5x-Luc reporter gene, iii) a Gαq5i66V chimera, and iv) a β-galactosidase control. Twenty-four hours after transfection, cells were stimulated with ligand for 4 hours and luciferase activity determined as described in Experimental Procedures. Luciferase activity was normalized relative to the maximal value observed using saturating concentrations of the corresponding soluble ligand (=100%). […] As a next step, the effect of membrane anchoring on chemerin activity was examined. […] HEK293 cells were transiently transfected with cDNAs encoding i) various tethered ligands, ii) human or mouse CMKLR1, iii) a SRE5x-Luc reporter gene, iv) aGαq5i66V chimera, and v) a β-galactosidase control. Twenty-four hours after transfection, luciferase activity was determined as described in Experimental Procedures.
(§3) HEK293 cells were transiently transfected with cDNAs encoding i) 8 ng of various tethered ligands, ii) human or mouse CMKLR1, iii) a SRE5x-Luc reporter gene, iv) a Gαq5i66V chimera, and v) a β-galactosidase control. Twenty-four hours after transfection, luciferase activity was determined as described in Experimental Procedures.

For assay [4], the target named is T1, human CMKLR1. The assay can be described thus: Washout experiments (serial washes after 15 min ligand, luciferase readout).
Method: (§4) Agonist activity was compared with and without serial washings shortly after addition of ligand. Briefly, HEK293 cells were plated and transfected as described above with the addition of a poly-L-lysine plate pretreatment step to enhance cell adhesion. Twenty-four hours after transfection, cells were stimulated with increasing concentrations of agonist for 15 minutes at 37° C. Selected wells were washed three times with serum-free media. Plates were then incubated for an additional 4 hours. Receptor mediated signaling was assessed using a luciferase based assay as described above.
(§5) HEK293 cells were transiently transfected with cDNAs encoding i) human or mouse CMKLR1, ii) a SRE5x-Luc reporter gene, iii) a Gαq5i66V chimera, and iv) a β-galactosidase control. Twenty-four hours after transfection, cells were stimulated with increasing concentrations of various ligands for 15 minutes. Selected wells were then washed three times with serum-free media and plates were further incubated for 4 hours.
Assay [5] deals with HEK293 cells transfected with vector control (pcDNA1.1). The experiment in a line: Luciferase reporter assay in cells transfected with vector control. It is filed as cell-based, human. The settings on record: cells transfected with pcDNA1.1 vector control. (In a reporter assay the amount or activity of a reporter protein is the signal.)
Method: as §1
Assay [6] has as its target T2, mouse CMKLR1 (Mus musculus, UniProt P97468).
T2 sequence (P97468 1-371): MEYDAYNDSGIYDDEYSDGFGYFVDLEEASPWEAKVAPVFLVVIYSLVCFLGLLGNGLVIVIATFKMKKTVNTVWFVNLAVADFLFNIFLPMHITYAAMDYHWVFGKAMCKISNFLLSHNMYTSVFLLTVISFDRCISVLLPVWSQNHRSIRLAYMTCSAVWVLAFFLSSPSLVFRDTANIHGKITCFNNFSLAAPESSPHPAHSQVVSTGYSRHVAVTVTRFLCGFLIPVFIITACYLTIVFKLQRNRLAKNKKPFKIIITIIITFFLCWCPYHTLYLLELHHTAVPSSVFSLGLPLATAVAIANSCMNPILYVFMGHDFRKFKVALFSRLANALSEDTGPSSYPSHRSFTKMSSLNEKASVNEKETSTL
The experiment in a line: SRE-luciferase reporter gene assay in transfected HEK293 cells.
Method: as §1, §2, §3

Assay [7] deals with T2, mouse CMKLR1. The experiment in a line: Washout experiments (serial washes after 15 min ligand, luciferase readout).
Method: as §4, §5
Setting [8] is: three washes after 15 min ligand.

For the molecule `CCCCCCCCCCCCCCCC(=O)NCCOCCOCCOCCOCCOCCOCCOCCOCCC(=O)NCC(=O)NCC(=O)N[C@H](Cc1ccc(O)cc1)C(=O)N[C@@H](Cc1ccccc1)C(=O)N[C@@H](CC(C)C)C(=O)N1CCC[C@H]1C(=O)N[C@H](CO)C(=O)N[C@@H](CCC(N)=O)C(=O)N[C@@H](Cc1ccccc1)C(=O)N[C@H](C)C(=O)N1Cc2ccccc2C[C@H]1C(=O)N[C@@H](CO)C(=O)O` [I-Stable Chem] ({Palmitoyl-PEG8}-GG[dY]FLP[dS]QF[dA][Tic]S-OH), the “Duration of significant reduction of established mechanical and cold allodynia” value in assay [1] is “greater than 24 hours”. For the same molecule, in assay [2] (in comparison to DMSO controls), the “Lung inflammatory response (H+E staining)” value is “Less leukocyte infiltration and fewer reactive bronchial epithelial cells”. For the same molecule, the “Number of eosinophils in bronchoalveolar lavage fluid” value in assay [2] (intranasal, 30 min prior to OVA challenge, versus DMSO) is “decreased”. Further, the “Airway epithelial mucus (PAS staining)” value in assay [2] (versus DMSO control) is listed as “most pronounced attenuation of mucus metaplasia”. Further, the EC50 in assay [3] was 2.57 nM; in assay [4] (pEC50, Human CMKLR1, + wash, washed three times after 15 min ligand, then 4 hours), 25.1 nM; in assay [6] (EC50 (nM), Mouse CMKLR1, no wash, HEK293 luciferase reporter), 2 nM; in assay [6] (pEC50, Mouse CMKLR1, no wash, mean ± S.E.M.), 2 nM; in assay [7] (pEC50, Mouse CMKLR1, + wash, washed three times after 15 min ligand, then 4 hours), 11 nM. The “Agonist activity after serial washes, human CMKLR1” value in assay [4] (setting [8]) is “persisted despite washing”. Moreover, in assay [5], the “Agonist activity without CMKLR1 expression” value is on record as “no agonist activity”. The “Agonist activity after serial washes, mouse CMKLR1” value in assay [7] (setting [8]) was “persisted despite washing”.

For the origin of these results see patent US11254720B2, “Methods and systems for designing and/or characterizing soluble lipidated ligand agents” (Tufts Medical Center, priority 2013, dated 2022).
